“And” between values parts separate entries of the source, which are not always exact repeats. Identical values can stand only once. Like-named read-outs stand apart in the source and are kept apart here.
Columns and labels:
Assay in all cases: Greenhouse test, pre-emergence treatment
ALOMY = format: in vivo, Alopecurus myosuroides
Excerpt: (§1) The culture containers used were plastic flowerpots containing loamy sand with approximately 3.0% of humus as the substrate. The seeds of the test plants were sown separately for each species.
(§2) For the pre-emergence treatment, the active ingredients, which had been suspended or emulsified in water, were applied directly after sowing by means of finely distributing nozzles. The containers were irrigated gently to promote germination and growth and subsequently covered with transparent plastic hoods until the plants had rooted. This cover caused uniform germination of the test plants, unless this had been impaired by the active ingredients.
(§3) Depending on the species, the plants were kept at 10-25° C. or 20-35° C., respectively.
(§4) The test period extended over 2 to 4 weeks. During this time, the plants were tended, and their response to the individual treatments was evaluated.
(§5) Evaluation was carried out using a scale from 0 to 100. 100 means no emergence of the plants, or complete destruction of at least the aerial moieties, and 0 means no damage, or normal course of growth. A moderate herbicidal activity is given at values of at least 60, a good herbicidal activity is given at values of at least 70, and a very good herbicidal activity is given at values of at least 85.
(§6) The respective stated components a and b, and if appropriate, c were formulated as a 10% by weight strength emulsion concentrate and, with addition of the amount of solvent system, introduced into the spray liquor used for applying the active compound.
(§7) In the examples, the solvent used was water.
(§8) In the examples below, using the method of S. R. Colby (1967) “Calculating synergistic and antagonistic responses of herbicide combinations”, Weeds 15, p. 22ff., the value E, which is expected if the activity of the individual active compounds is only additive, was calculated. E=X+Y−(X·Y/100) where • X=percent activity using active compound a at an application rate A; • Y=percent activity using active compound b at an application rate B; • E=expected activity (in %) by a+b at application rates A+B.
(§9) If the value found experimentally is higher than the value E calculated according to Colby, a synergistic effect is present.

PHACA = format: in vivo, Phalaris canariensis
Excerpt: as §1, §2, §3, §4, §5, §6, §7, §8, §9

APESV = format: in vivo, Apera spica-venti; details: use rate 15.5 g ai/ha
Excerpt: as §1, §2, §3, §4, §5, §6, §7, §8, §9

VIOAR = format: in vivo, Viola arvensis; details: Viola arvensis, 480 h, read-out: observed % activity 20 DAT
Excerpt: as §1, §2, §3, §4, §5, §6, §7, §8, §9

LOLMU = format: in vivo, Lolium multiflorum; details: for observed % activity: 20 DAT
Excerpt: as §1, §2, §3, §4, §5, §6, §7, §8, §9

POLCO = format: in vivo, Polygonum convolvulus; details: for inhibition at 62 g/ha: use rate 62 g ai/ha; for observed % activity: 20 DAT
Procedure, shortened: (§10)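 Seeds were sown in loamy sand with approximately 3.0% humus, then sprayed at once with actives suspended or emulsified in water. Pots were watered, hooded until rooting, held at 10-25° C. or 20-35° C. by species for 2 to 4 weeks, and scored 0 (no damage) to 100 (no emergence/complete destruction).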

GERPU = format: in vivo, Geranium pusillum; details: pre-emergence, pre-emergence
Procedure, shortened: as §10

SETFA = format: in vivo, Setaria faberi; details: for inhibition at 7.75 g/ha / inhibition at 15.5 g/ha: Setaria faberi, 480 h, read-out: observed % activity 20 DAT; for inhibition at 15.5 g/ha: use rate 15.5 g ai/ha
Excerpt: as §1, §2, §3, §4, §5, §6, §7, §8, §9

ECHCG = format: in vivo, Echinocloa crus-galli; details: Echinochloa crus-galli, 480 h, read-out: observed % activity 20 DAT
Excerpt: as §1, §2, §3, §4, §5, §6, §7, §8, §9

KCHSC = format: in vivo, Kochia scoparia; details: for inhibition at 31 g/ha: use rate 31 g ai/ha; for inhibition at 62 g/ha: use rate 62 g ai/ha; for observed % activity: 20 DAT
Procedure, shortened: as §10

SORHA = format: in vivo, Sorghum halepense; details: 125 g ai/ha, 20 DAT
Excerpt: as §1, §2, §3, §4, §5, §6, §7, §8, §9

AVEFA = format: in vivo, Avena fatua; details: 250 g ai/ha, 20 DAT
Excerpt: as §1, §2, §3, §4, §5, §6, §7, §8, §9

GALAP = format: in vivo, Galium aparine; details: 20 DAT
Procedure, shortened: as §10

[1] = pre-emergence, use rate 7.75 g ai/ha
[2] = pre-emergence, use rate 15.5 g ai/ha
[3] = pre-emergence, use rate 31 g ai/ha
[4] = pre-emergence, use rate 62 g ai/ha
[5] = Bassia scoparia, pre-emergence, 480 h, KCHSC, pre-emergence, individual, read-out: observed % activity 20 DAT
[6] = Bassia scoparia, pre-emergence, 480 h, pre-emergence, read-out: observed % activity 20 DAT

**Q.** Which inhibition at 15.5 g/ha (ALOMY; Alopecurus myosuroides, pre-emergence, 480 h, ALOMY, pre-emergence, individual, use rate 15.5 g ai/ha, read-out: observed % activity 20 DAT) does the source give for CC(C)(F)c1nc(N)nc(Nc2c(F)cccc2F)n1 [compound 10, N4-(2,6-difluorophenyl)-6-(1-fluoro-1-methyl-ethyl)-1,3,5-triazine-2,4-diamine] here?
**A.** 65%

**Q.** What about the inhibition at 31 g/ha (ALOMY; Alopecurus myosuroides, pre-emergence, 480 h, ALOMY, pre-emergence, individual, use rate 31 g ai/ha, read-out: observed % activity 20 DAT) of the same compound?
**A.** 90%

**Q.** What about the inhibition at 62 g/ha (ALOMY; Alopecurus myosuroides, pre-emergence, 480 h, ALOMY, pre-emergence, individual, use rate 62 g ai/ha, read-out: observed % activity 20 DAT) of the same compound?
**A.** 90%

**Q.** And the inhibition at 7.75 g/ha (ALOMY; Alopecurus myosuroides, pre-emergence, 480 h, pre-emergence, use rate 7.75 g ai/ha, read-out: observed % activity 20 DAT)?
**A.** 65%

**Q.** What about the inhibition at 31 g/ha (ALOMY; Alopecurus myosuroides, pre-emergence, 480 h, pre-emergence, use rate 31 g ai/ha, read-out: observed % activity 20 DAT) of the same compound?
**A.** 90%

**Q.** What about the inhibition at 62 g/ha (ALOMY; Alopecurus myosuroides, pre-emergence, 480 h, pre-emergence, use rate 62 g ai/ha, read-out: observed % activity 20 DAT) of the same compound?
**A.** 90%

**Q.** And the “observed % activity 20 DAT” value (ALOMY; [1])?
**A.** 75%

**Q.** What about the “observed % activity 20 DAT” value (ALOMY; [2]) of the same compound?
**A.** 70% and 95%

**Q.** What about the “observed % activity 20 DAT” value (ALOMY; [3]) of the same compound?
**A.** 98%

**Q.** What about the “observed % activity 20 DAT” value (ALOMY; [4]) of the same compound?
**A.** 95% and 98%

**Q.** And the inhibition at 31 g/ha (PHACA; Phalaris canariensis, pre-emergence, 480 h, pre-emergence, use rate 31 g ai/ha, read-out: observed % activity 20 DAT)?
**A.** 80%

**Q.** And the inhibition at 62 g/ha (PHACA; Phalaris canariensis, pre-emergence, 480 h, pre-emergence, use rate 62 g ai/ha, read-out: observed % activity 20 DAT)?
**A.** 75%

**Q.** And the “observed % activity 20 DAT” value (PHACA; [2])?
**A.** 60%

**Q.** What about the “observed % activity 20 DAT” value (PHACA; [3]) of the same compound?
**A.** 85%

**Q.** And the “observed % activity 20 DAT” value (PHACA; [4])?
**A.** 70%

**Q.** What about the inhibition at 15.5 g/ha (APESV; Apera spica-venti, 480 h, read-out: observed % activity 20 DAT) of the same compound?
**A.** 95%

**Q.** What about the “observed % activity 20 DAT” value (APESV) of the same compound?
**A.** 98%

**Q.** What about the inhibition at 7.75 g/ha (VIOAR; use rate 7.75 g ai/ha) of the same compound?
**A.** 90%

**Q.** What about the inhibition at 15.5 g/ha (VIOAR; use rate 15.5 g ai/ha) of the same compound?
**A.** 85%

**Q.** And the inhibition at 7.75 g/ha (LOLMU; Lolium multiflorum, pre-emergence, 480 h, LOLMU, pre-emergence, individual, use rate 7.75 g ai/ha, read-out: observed % activity 20 DAT)?
**A.** 30%

**Q.** What about the inhibition at 31 g/ha (LOLMU; Lolium multiflorum, pre-emergence, 480 h, LOLMU, pre-emergence, individual, use rate 31 g ai/ha, read-out: observed % activity 20 DAT) of the same compound?
**A.** 70%

**Q.** What about the inhibition at 31 g/ha (LOLMU; Lolium multiflorum, pre-emergence, 480 h, pre-emergence, use rate 31 g ai/ha, read-out: observed % activity 20 DAT) of the same compound?
**A.** 70%

**Q.** What about the inhibition at 62 g/ha (LOLMU; Lolium multiflorum, pre-emergence, 480 h, pre-emergence, use rate 62 g ai/ha, read-out: observed % activity 20 DAT) of the same compound?
**A.** 90%

**Q.** What about the “observed % activity 20 DAT” value (LOLMU; [1]) of the same compound?
**A.** 15% and 20% and 0%

**Q.** What about the “observed % activity 20 DAT” value (LOLMU; [2]) of the same compound?
**A.** 35% and 50% and 25%

**Q.** What about the “observed % activity 20 DAT” value (LOLMU; [3]) of the same compound?
**A.** 80%

**Q.** And the “observed % activity 20 DAT” value (LOLMU; [4])?
**A.** 85%

**Q.** And the inhibition at 62 g/ha (POLCO; Fallopia convolvulus, pre-emergence, 480 h, POLCO, pre-emergence, individual, read-out: observed % activity 20 DAT)?
**A.** 95%

**Q.** And the inhibition at 7.75 g/ha (POLCO; Fallopia convolvulus, pre-emergence, 480 h, pre-emergence, use rate 7.75 g ai/ha, read-out: observed % activity 20 DAT)?
**A.** 70%

**Q.** And the inhibition at 15.5 g/ha (POLCO; Fallopia convolvulus, pre-emergence, 480 h, pre-emergence, use rate 15.5 g ai/ha, read-out: observed % activity 20 DAT)?
**A.** 90%

**Q.** What about the inhibition at 62 g/ha (POLCO; Fallopia convolvulus, pre-emergence, 480 h, pre-emergence, read-out: observed % activity 20 DAT) of the same compound?
**A.** 95%

**Q.** What about the “observed % activity 20 DAT” value (POLCO; [1]) of the same compound?
**A.** 75%

**Q.** And the inhibition at 15.5 g/ha (GERPU; Geranium pusillum, 480 h, use rate 15.5 g ai/ha, read-out: observed % activity 20 DAT)?
**A.** 75%

**Q.** What about the “observed % activity 20 DAT” value (GERPU; use rate 7.75 g ai/ha) of the same compound?
**A.** 50%

**Q.** And the inhibition at 7.75 g/ha (SETFA; SETFA, individual, use rate 7.75 g ai/ha)?
**A.** 90%

**Q.** What about the inhibition at 15.5 g/ha (SETFA; SETFA, individual) of the same compound?
**A.** 98%

**Q.** And the inhibition at 7.75 g/ha (SETFA; use rate 7.75 g ai/ha)?
**A.** 75%

**Q.** What about the inhibition at 15.5 g/ha (SETFA) of the same compound?
**A.** 95%

**Q.** What about the “observed % activity 20 DAT” value (SETFA; use rate 7.75 g ai/ha) of the same compound?
**A.** 65%

**Q.** What about the inhibition at 7.75 g/ha (ECHCG; use rate 7.75 g ai/ha) of the same compound?
**A.** 90%

**Q.** And the inhibition at 15.5 g/ha (ECHCG; use rate 15.5 g ai/ha)?
**A.** 95%

**Q.** And the inhibition at 31 g/ha (KCHSC; [5])?
**A.** 75%

**Q.** What about the inhibition at 62 g/ha (KCHSC; [5]) of the same compound?
**A.** 90%

**Q.** And the inhibition at 16.5 g/ha (KCHSC; Bassia scoparia, pre-emergence, 480 h, pre-emergence, use rate 16.5 g ai/ha, read-out: observed % activity 20 DAT)?
**A.** 65%

**Q.** And the inhibition at 31 g/ha (KCHSC; [6])?
**A.** 95%

**Q.** And the inhibition at 62 g/ha (KCHSC; [6])?
**A.** 90%

**Q.** What about the “observed % activity 20 DAT” value (KCHSC; [1]) of the same compound?
**A.** 85% and 55%

**Q.** What about the “observed % activity 20 DAT” value (KCHSC; [2]) of the same compound?
**A.** 85%

**Q.** How did the observed % activity (ALOMY; 125 g ai/ha, 20 DAT) turn out when COC[C@H](C)N(C(=O)CCl)c1c(C)csc1C [dimethenamid-P] was run?
**A.** 45%

**Q.** What about the observed % activity (PHACA; 125 g ai/ha, 20 DAT) of the same compound?
**A.** 80%

**Q.** And the observed % activity (SORHA)?
**A.** 98%

**Q.** What about the observed % activity (AVEFA) of the same compound?
**A.** 65%

**Q.** And the observed % activity (LOLMU; 125 g ai/ha)?
**A.** 95%

**Q.** What about the observed % activity (LOLMU; 250 g ai/ha) of the same compound?
**A.** 95%

**Q.** And the observed % activity (POLCO; 125 g ai/ha)?
**A.** 55%

**Q.** And the observed % activity (POLCO; 250 g ai/ha)?
**A.** 50%

**Q.** And the observed % activity (GALAP; 125 g ai/ha)?
**A.** 30%

**Q.** What about the observed % activity (GALAP; 250 g ai/ha) of the same compound?
**A.** 50%

**Q.** What about the observed % activity (KCHSC; 125 g ai/ha) of the same compound?
**A.** 40%

**Q.** What about the observed % activity (KCHSC; 250 g ai/ha) of the same compound?
**A.** 85%

Source: patent US9999222B2, “Herbicidal combination comprising azines” (BASF SE, priority 2014, dated 2018)
